{"source": "patent US20240408170A1", "about": "“COMPOSITION FOR DECOMPOSITION OF TRYPSIN OR TMPRSS2” (Riken, priority 2021, published 2024)", "key": {"[1]": {"target": "T1, recombinant mouse PRSS2 (Mus musculus, UniProt P07146)", "T1 construct": "purchased Sino Biological, Inc. 50383-M08H", "T1 sequence (P07146 24-246)": "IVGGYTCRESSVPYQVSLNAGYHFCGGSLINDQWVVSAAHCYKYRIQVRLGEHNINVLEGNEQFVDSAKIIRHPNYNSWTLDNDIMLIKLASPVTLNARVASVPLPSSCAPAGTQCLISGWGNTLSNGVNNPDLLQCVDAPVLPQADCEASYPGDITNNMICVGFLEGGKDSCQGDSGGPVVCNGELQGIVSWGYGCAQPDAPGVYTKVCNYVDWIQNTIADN", "assay": "Trypsin decomposition in vitro by bacteria (western blot)", "type": "biochemical", "settings": "bacteria or culture supernatant incubated with recombinant mouse trypsin", "experimental": "Mouse faecal samples were suspended and diluted 50-fold with phosphate buffered saline (PBS) to which a protease inhibitor cocktail (Roche) was added. Subsequently, the suspended sample was centrifuged at 15,000×g for 10 minutes at 4° C., and the supernatant was subjected to western blot. Mouse pancreatic tissue was rapidly frozen in liquid nitrogen. Proteins were extracted by TRIzol Reagent (Thermo Fisher Scientific K.K.), and the final protein concentration was adjusted to 4 μg/μL. For SDS-PAGE and blotting, Novex (registered trademark) NuPAGE (registered trademark) SDS-PAGE Gel system (Thermo Fisher Scientific K.K.) and iBlot™ 2 Dry Blotting System (Thermo Fisher Scientific K.K.) were used according to the manufacturer's instructions.\nThe bacteria cultured overnight were incubated with recombinant mouse trypsin (final concentration: 1 μg/mL) for 1 hour or with human trypsin (final concentration: 20 μg/mL) for 4 hours. Recombinant trypsin isoforms used were as follows: recombinant mouse PRSS2 (50383-M08H, Sino Biological, Inc.), recombinant human PRSS1 (LS-G135640), recombinant human PRSS2 (LS-G20167), and recombinant human PRSS3 (His-tag) (NBP2-52220).\nIn some experiments, recombinant mouse PRSS2 was first treated with one of the following trypsin inhibitors for 30 minutes before incubation with a P. clara culture solution. AEBSF (Sigma-Aldrich, final concentration: 2 mM), Leupeptin (Sigma-Aldrich, final concentration: 100 μM), and TLCK (Abcam plc., final concentration: 100 μM).\nIn some experiments, P. clara was cultured overnight in the presence of Tunicamycin (Sigma-Aldrich, final concentration: 10 μg/mL), 2-Fluoro-L-fucose (Cayman Chemical Company, final concentration: 250 μM), or the corresponding DMSO control, before incubation with recombinant mouse PRSS2.\nIn the experiment of evaluating the effect of Ca^2+, P. clara was cultured in a low Ca^2+ mGAM medium supplemented with or without 1 mM of Ca^2+, before incubation with recombinant mouse PRSS2. In the experiment in which the supernatant of P. clara was used, P. clara cultured overnight was filtered through a sterilization filter unit formed using a PVDF film having a pore size of 0.22 μm."}, "[2]": {"tested_on": "mouse hepatitis virus (MHV)", "assay": "Mouse hepatitis virus (MHV) infection of gnotobiotic mice", "type": "in vivo", "settings": "with 2-mix", "experimental": "MHV-2 was provided by Makoto UJIKE (Nippon Veterinary and Life Science University). Five-week-old GF C57BL/6N male mice were obtained from CLEA Japan, Inc. or Sankyo Labo Service Corporation, and were separately bred in stainless steel isolators. 200 μL of 2-mix (B. uniformis and P. merdae)+P. clara (WT) or 2-mix+P. clara (Δ00502) was orally administered to the GF mice. Two weeks after inoculation, the mice were orally infected with 4.5×10^6 PFU of MHV-2, and the survival rate was observed every day for 10 days.\nThe liver and brain were collected on 4 or 5 days after infection to measure virus titers, and homogenization was performed with DNA/RNA Shield (Zymo Research Corporation). Viral RNA was extracted using a Quick-RNA Viral Kit (Zymo Research Corporation) according to the manufacturer's instructions, and cDNA was synthesized using ReverTra Ace (TOYOBO CO., LTD.) and a random primer (TOYOBO CO., LTD.).\nQuantitative real-time PCR was performed with LightCycler 480 System (Roche) using THUNDERBIRD SYBR qPCR Mix (TOYOBO CO., LTD.) to amplify an orf1a gene. The relative amount of MHV was obtained from a standard curve created from a serial diluent solution of MHV genomic cDNA. The base sequences of the primers used are as follows."}, "[3]": {"tested_on": "IgA heavy chain", "assay": "Ex vivo incubation of mouse faeces at 37° C. for 48 hours, western blot", "settings": "faeces of GF mice inoculated together with 2-mix, 37° C. 48 hours", "experimental": "(§1) Mouse faecal samples were suspended and diluted 50-fold with phosphate buffered saline (PBS) to which a protease inhibitor cocktail (Roche) was added. Subsequently, the suspended sample was centrifuged at 15,000×g for 10 minutes at 4° C., and the supernatant was subjected to western blot. Mouse pancreatic tissue was rapidly frozen in liquid nitrogen. Proteins were extracted by TRIzol Reagent (Thermo Fisher Scientific K.K.), and the final protein concentration was adjusted to 4 μg/μL. For SDS-PAGE and blotting, Novex (registered trademark) NuPAGE (registered trademark) SDS-PAGE Gel system (Thermo Fisher Scientific K.K.) and iBlotTM 2 Dry Blotting System (Thermo Fisher Scientific K.K.) were used according to the manufacturer's instructions. The antibodies used are as follows. A rabbit anti-mouse PRSS2 antibody (Cosmo Bio Co., Ltd.), a rabbit anti-mouse HSP90 antibody (#4877, Cell Signaling Technology, Inc.), a rabbit anti-human PRSS2 antibody (LS-B15726, LSBio), a rabbit anti-human PRSS1 antibody (LS-331381, LSBio), a rabbit anti-mouse TMPRSS2 antibody (LS-C373022, LSBio, against the sequence of the protease domain), a rabbit anti-6-His antibody ([…]-[…], Bethyl Laboratories, Inc.), a goat anti-mouse IgA a chain antibody (HRP) (ab97235, Abcam plc.), a rat anti-mouse κ chain antibody (HRP) (ab99632, Abcam plc.), a rabbit anti-mouse CELA3b antibody (OACD03205, Aviva Systems Biology Corporation), an anti-rabbit IgG antibody (HRP) (#7074, Cell Signaling Technology, Inc.), and a rabbit anti-mouse Reg3 antibody (51153-[…], Sino Biological, Inc.)."}, "[4]": {"target": "T2, trypsin (PRSS2) (Mus musculus, UniProt P07146)", "T2 construct": "the anionic trypsin protease was abundantly present in the cecal contents and the faeces; from tissue; host or cells: faeces and cecal contents of germ-free / gnotobiotic mice", "T2 sequence (P07146 24-246)": "T1 sequence (P07146 24-246)", "assay": "Ex vivo incubation of mouse faeces at 37° C. for 48 hours, western blot", "settings": "faeces of GF mice inoculated together with 2-mix, 37° C. 48 hours", "experimental": "as §1"}}, "data": [{"substance": "Paraprevotella clara [JCM 14859]", "values": [{"measurement": "decomposition of rmPRSS2 (western blot)", "setting": "[1]", "result": "effect of reducing trypsin"}, {"measurement": "liver pathology (hematoxylin and eosin)", "setting": "[2]", "result": "protected from the necrotizing liver pathology"}, {"measurement": "viral titers of MHV in liver and brain", "setting": "[2]", "result": "significantly prevented the spread of the virus"}, {"measurement": "survival after MHV infection", "setting": "[2]; oral MHV 14 days after inoculation", "result": "prolonged survival"}, {"measurement": "IgA heavy chain in faeces", "setting": "[3]", "result": "remained"}, {"measurement": "trypsin in faeces", "setting": "[4]", "result": "reduced"}]}]}
